We go through 16 compounds from ChEMBL document CHEMBL1133784, “Inhibition of hepatitis C virus NS3 protease activity by product-based peptides is dependent on helicase domain” (Bioorg Med Chem Lett, 2001).

The Ki is a measure of affinity in units of concentration, obtained from inhibition or displacement. Higher therefore signals weaker binding. The inhibition is the share of the control response that was lost under treatment. Lower therefore signals a response near the control.

Where a SMILES comes first, the peptide text is derived from it. [ ]: non-standard residue; d: D form. Dip = N[C@H](C(=O)O)C(c1ccccc1)c1ccccc1; 2Nal = N[C@@H](Cc1ccc2ccccc2c1)C(=O)O; dGla = N[C@H](CC(C(=O)O)C(=O)O)C(=O)O; Cha = N[C@@H](CC1CCCCC1)C(=O)O

For experiment [1], the target named is T1, NS3 (Hepatitis C virus, UniProt A3EZJ3). Kind of experiment: Inhibitory activity against hepatitis C virus (HCV) NS3 protease (isolated domain). More on the design: species or system Hepacivirus hominis.
T1 sequence (A3EZJ3 whole entry, the tested form may be a part): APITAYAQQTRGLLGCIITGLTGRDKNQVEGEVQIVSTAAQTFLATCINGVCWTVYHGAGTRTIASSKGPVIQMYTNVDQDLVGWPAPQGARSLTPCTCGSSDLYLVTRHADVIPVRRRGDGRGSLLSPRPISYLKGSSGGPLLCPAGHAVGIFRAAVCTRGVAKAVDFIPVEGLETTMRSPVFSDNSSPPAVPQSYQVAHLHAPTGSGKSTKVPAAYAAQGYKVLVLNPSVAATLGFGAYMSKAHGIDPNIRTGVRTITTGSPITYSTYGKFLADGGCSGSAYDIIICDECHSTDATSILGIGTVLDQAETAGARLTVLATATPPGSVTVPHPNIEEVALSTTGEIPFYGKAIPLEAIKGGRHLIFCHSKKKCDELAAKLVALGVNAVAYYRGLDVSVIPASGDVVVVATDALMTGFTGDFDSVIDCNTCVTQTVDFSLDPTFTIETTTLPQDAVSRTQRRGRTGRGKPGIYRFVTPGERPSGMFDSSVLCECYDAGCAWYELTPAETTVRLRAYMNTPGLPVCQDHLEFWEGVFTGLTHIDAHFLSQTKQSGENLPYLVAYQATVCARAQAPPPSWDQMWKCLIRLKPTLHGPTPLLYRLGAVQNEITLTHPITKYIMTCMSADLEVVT
The target of experiment [2] is T1, NS3. Kind of experiment: Inhibitory activity against hepatitis C virus (HCV) NS3 protease (full-length). More on the design: species or system Hepacivirus hominis.
The target in experiment [3] is NS3 (Hepatitis C virus) (UniProt A3EZJ3). Kind of experiment: Inhibitory activity against hepatitis C virus (HCV) NS3 protease (isolated domain) at a concentration of 6 uM. As to conditions: Hepacivirus hominis.
Chain of NS3 (Hepatitis C virus) (A3EZJ3 as listed by the source): as the sequence (A3EZJ3 whole entry, the tested form may be a part) above

Regarding `CC[C@H](C)[C@H](NC(=O)[C@@H](NC(=O)[C@H](CCC(=O)O)NC(C)=O)C(c1ccccc1)c1ccccc1)C(=O)N[C@@H](CC1CCCCC1)C(=O)N[C@@H](CS)C(=O)O` (Ac-E[Dip]I[Cha]C-OH), the results for the inhibition constant (Ki) in experiment [1] and in experiment [2] were 1.2 µM and 1 µM, respectively. The corresponding values for Ac-DEMEEC-OH are 0.5 µM and 0.36 µM. For `CSCC[C@H](NC(=O)[C@H](CCC(=O)O)NC(=O)[C@H](CC(=O)O)NC(C)=O)C(=O)N[C@@H](CCC(=O)O)C(=O)N[C@@H](CC1CCCCC1)C(=O)N[C@@H](CS)C(=O)O` (Ac-DEME[Cha]C-OH), in that order: 0.4 µM and 0.44 µM.

As to `CSCC[C@H](NC(=O)[C@H](CCC(=O)O)NC(=O)[C@H](CC(=O)O)NC(C)=O)C(=O)N[C@@H](CCC(=O)O)C(=O)N[C@@H](Cc1ccc2ccccc2c1)C(=O)N[C@@H](CS)C(=O)O` (Ac-DEME[2Nal]C-OH), the results for the Ki in experiment [1] and in experiment [2] were 0.18 µM and 1.04 µM, respectively. Consider `CC(=O)N[C@@H](CC(=O)O)C(=O)N[C@@H](CCC(=O)O)C(=O)N[C@H](C(=O)N[C@@H](CCC(=O)O)C(=O)N[C@@H](CC1CCCCC1)C(=O)N[C@@H](CS)C(=O)O)C(c1ccccc1)c1ccccc1` (Ac-DE[Dip]E[Cha]C-OH), for which the inhibitory constant (Ki) in experiment [1] is 0.025 µM; in experiment [2], 0.041 µM. The corresponding values for `CC(=O)N[C@H](C(=O)N[C@@H](CCC(=O)O)C(=O)N[C@@H](CC1CCCCC1)C(=O)N[C@@H](CS)C(=O)O)C(c1ccccc1)c1ccccc1` (Ac-[Dip]E[Cha]C-OH) are 15 µM and 1.1 µM.

For the compound `CC(=O)N[C@@H](CCC(=O)O)C(=O)N[C@@H](CC1CCCCC1)C(=O)N[C@@H](CS)C(=O)O` (Ac-Glu-[Cha]-Cys-OH), the Ki in experiment [1] came out at 230 µM; in experiment [2], 4.1 µM. In experiment [3], `CC(=O)N[C@@H](CC(=O)O)C(=O)N[C@@H](CCC(=O)O)C(=O)N[C@H](C(=O)N[C@@H](CCCCN)C(=O)N[C@@H](CC1CCCCC1)C(=O)N[C@@H](CS)C(=O)O)C(c1ccccc1)c1ccccc1` (Ac-DE[Dip]K[Cha]C-OH) gave an inhibition of 8%. In experiment [2], the inhibitory constant (Ki) is 1.24 µM. On to `CC(=O)N[C@@H](CCC(=O)O)C(=O)N[C@H](C(=O)N[C@@H](CCC(=O)O)C(=O)N[C@@H](CC1CCCCC1)C(=O)N[C@@H](CS)C(=O)O)C(c1ccccc1)c1ccccc1` (Ac-E[Dip]E[Cha]C-OH), for which the figures for the inhibition constant Ki in experiment [1] and in experiment [2] were 0.7 µM and 0.33 µM, respectively. Take `CC(C)C[C@H](NC(=O)[C@@H](CCC(=O)O)NC(=O)[C@@H](N)CC(=O)O)C(=O)N[C@@H](CCC(=O)O)C(=O)N[C@@H](CC1CCCCC1)C(=O)N[C@@H](CS)C(=O)O`: in experiment [2], the Ki was determined as 1.54 µM.

As for `CC[C@H](C)[C@H](NC(=O)[C@H](CC(C)C)NC(=O)[C@@H](CC(C(=O)O)C(=O)O)NC(=O)[C@H](CC(=O)O)NC(C)=O)C(=O)N[C@@H](CC1CCCCC1)C(=O)N[C@@H](CS)C(=O)O` (Ac-D[dGla]LI[Cha]C-OH), the figures for the inhibitory constant (Ki) in experiment [1] and in experiment [2] were 0.00075 µM and 0.012 µM, respectively. For the compound `CC[C@H](C)[C@H](NC(=O)[C@@H](NC(=O)[C@H](CCC(=O)O)NC(=O)[C@H](CC(=O)O)NC(C)=O)C(c1ccccc1)c1ccccc1)C(=O)N[C@@H](CC1CCCCC1)C(=O)N[C@@H](CS)C(=O)O` (Ac-DE[Dip]I[Cha]C-OH), the Ki worked out at 0.03 µM in experiment [1] and 0.22 µM in experiment [2].

In the case of `CC(=O)N[C@@H](CC(=O)O)C(=O)N[C@@H](CCC(=O)O)C(=O)N[C@@H](CC(C)C)C(=O)N[C@@H](CCC(=O)O)C(=O)N[C@@H](CC1CCCCC1)C(=O)N[C@@H](CS)C(=O)O`, the Ki in experiment [1] turned out to be 0.06 µM; in experiment [2], 0.49 µM. Consider `CC[C@H](C)[C@H](NC(=O)[C@@H](NC(C)=O)C(c1ccccc1)c1ccccc1)C(=O)N[C@@H](CC1CCCCC1)C(=O)N[C@@H](CS)C(=O)O` (Ac-[Dip]I[Cha]C-OH), for which the Ki in experiment [1] came to 50 µM; in experiment [2] it was 2.1 µM.

Take `CC[C@H](C)[C@H](NC(C)=O)C(=O)N[C@@H](CC1CCCCC1)C(=O)N[C@@H](CS)C(=O)O` (Ac-Ile-[Cha]-Cys-OH): affinity in experiment [2] was put at a Ki of 25 µM. As for `CC(=O)N[C@@H](CC(=O)O)C(=O)N[C@H](CCC(=O)O)C(=O)N[C@@H](CC(C)C)C(=O)N[C@@H](CCC(=O)O)C(=O)N[C@@H](CC1CCCCC1)C(=O)N[C@@H](CS)C(=O)O`, the inhibitory constant (Ki) came to 0.023 µM in experiment [1] and 0.18 µM in experiment [2].
